24 molecules from patent publication US20190284136A1, “INDOLINE DERIVATIVES” (ViiV HEALTHCARE UK LIMITED, priority 2016, published 2019) can be followed below.

Molecules are shown by their SMILES.

The assay relates to HIV. Description: Table 1 IC50 of the examples (assay method not given; patent concerns inhibiting HIV replication). Conditions: Human immunodeficiency virus 1. The assay is classed as cell-based.
One may read the IC50 as the point on the concentration scale where inhibition reaches its midpoint. In the case of `CNC(=O)c1cccc(C(=O)N2CCc3c2cc(C)c([C@H](OC(C)(C)C)C(=O)O)c3-c2cc(F)c3c(c2C)CCCO3)c1` (atropisomer, axis not shown) [Example 153, (S)-2-(tert-Butoxy)-2-((R)-4-(8-fluoro-5-methylchroman-6-yl)-6-methyl-1-(3-(methylcarbamoyl)benzoyl)indolin-5-yl)acetic acid], inhibition was half-maximal at 125 nM (IC50). Consider `Cc1cc2c(c(-c3cc(F)c4c(c3C)CCCO4)c1[C@H](OC(C)(C)C)C(=O)O)CCN2C(=O)c1cc(C(F)(F)F)ccc1Cl` (atropisomer, axis not shown) [Example 154, (S)-2-(tert-Butoxy)-2-((R)-1-(2-chloro-5-(trifluoromethyl)benzoyl)-4-(8-fluoro-5-methylchroman-6-yl)-6-methylindolin-5-yl)acetic acid], for which the midpoint of inhibition, the IC50, lay at 52 nM. With `Cc1cc2c(c(-c3cc(F)c4c(c3C)CCCO4)c1[C@H](OC(C)(C)C)C(=O)O)CCN2C(=O)c1cc(C(F)(F)F)ccc1F` (atropisomer, axis not shown) [Example 155, (S)-2-(tert-Butoxy)-2-((R)-1-(2-fluoro-5-(trifluoromethyl)benzoyl)-4-(8-fluoro-5-methylchroman-6-yl)-6-methylindolin-5-yl)acetic acid], the 50% inhibitory concentration (IC50) turned out to be 72 nM. The figure for `Cc1cc2c(c(-c3cc(F)c4c(c3C)CCCO4)c1[C@H](OC(C)(C)C)C(=O)O)CCN2C(=O)c1ccc(Cl)cc1C(F)(F)F` (atropisomer, axis not shown) [Example 156, (S)-2-(tert-Butoxy)-2-((R)-1-(4-chloro-2-(trifluoromethyl)benzoyl)-4-(8-fluoro-5-methylchroman-6-yl)-6-methylindolin-5-yl)acetic acid] is 5 nM; for `COc1ccc(C(=O)N2CCc3c2cc(C)c([C@H](OC(C)(C)C)C(=O)O)c3-c2cc(F)c3c(c2C)CCCO3)cc1C(F)(F)F` (atropisomer, axis not shown) [Example 157, (S)-2-(tert-Butoxy)-2-((R)-4-(8-fluoro-5-methylchroman-6-yl)-1-(4-methoxy-3-(trifluoromethyl)benzoyl)-6-methylindolin-5-yl)acetic acid] it is 6 nM; for `COc1cc(C)ccc1C(=O)N1CCc2c1cc(C)c([C@H](OC(C)(C)C)C(=O)O)c2-c1cc(F)c2c(c1C)CCCO2` (atropisomer, axis not shown) [Example 159, (S)-2-(tert-Butoxy)-2-((R)-4-(8-fluoro-5-methylchroman-6-yl)-1-(2-methoxy-4-methylbenzoyl)-6-methylindolin-5-yl)acetic acid] it is 4 nM. With `Cc1cc2c(c(-c3cc(F)c4c(c3C)CCCO4)c1[C@H](OC(C)(C)C)C(=O)O)CCN2C(=O)c1cccc(C(F)(F)F)c1F` (atropisomer, axis not shown) [Example 160, (S)-2-(tert-Butoxy)-2-((R)-1-(2-fluoro-3-(trifluoromethyl)benzoyl)-4-(8-fluoro-5-methylchroman-6-yl)-6-methylindolin-5-yl)acetic acid] the figure was 14 nM. With `Cc1cc2c(c(-c3cc(F)c4c(c3C)CCCO4)c1[C@H](OC(C)(C)C)C(=O)O)CCN2C(=O)C1CCC1` (atropisomer, axis not shown) [Example 161, (S)-2-(tert-Butoxy)-2-((R)-1-(cyclobutanecarbonyl)-4-(8-fluoro-5-methylchroman-6-yl)-6-methylindolin-5-yl)acetic acid] the figure was 81 nM; with `COc1cccc(C(=O)N2CCc3c2cc(C)c([C@H](OC(C)(C)C)C(=O)O)c3-c2cc(F)c3c(c2C)CCCO3)c1` (atropisomer, axis not shown) [Example 162, (S)-2-(tert-Butoxy)-2-((R)-4-(8-fluoro-5-methylchroman-6-yl)-1-(3-methoxybenzoyl)-6-methylindolin-5-yl)acetic acid], 7 nM; with `COc1cc(C(F)(F)F)ccc1C(=O)N1CCc2c1cc(C)c([C@H](OC(C)(C)C)C(=O)O)c2-c1cc(F)c2c(c1C)CCCO2` (atropisomer, axis not shown) [Example 163, (S)-2-(tert-Butoxy)-2-((R)-4-(8-fluoro-5-methylchroman-6-yl)-1-(2-methoxy-4-(trifluoromethyl)benzoyl)-6-methylindolin-5-yl)acetic acid], 9 nM.

Molecule `Cc1cc2c(c(-c3cc(F)c4c(c3C)CCCO4)c1[C@H](OC(C)(C)C)C(=O)O)CCN2C(=O)c1cccc(C(=O)N2CCCCC2)c1` (atropisomer, axis not shown) [Example 164, (S)-2-(tert-Butoxy)-2-((R)-4-(8-fluoro-5-methylchroman-6-yl)-6-methyl-1-(3-(piperidine-1-carbonyl)benzoyl)indolin-5-yl)acetic acid] had an IC50 of 176 nM. With `Cc1ccc(Cl)c(C(=O)N2CCc3c2cc(C)c([C@H](OC(C)(C)C)C(=O)O)c3-c2cc(F)c3c(c2C)CCCO3)c1` (atropisomer, axis not shown) [Example 165, (S)-2-(tert-Butoxy)-2-((R)-1-(2-chloro-5-methylbenzoyl)-4-(8-fluoro-5-methylchroman-6-yl)-6-methylindolin-5-yl)acetic acid] the figure was 6 nM.

The molecule `Cc1cc2c(c(-c3cc(F)c4c(c3C)CCCO4)c1[C@H](OC(C)(C)C)C(=O)O)CCN2C(=O)c1cccc2c1OCCC2` (atropisomer, axis not shown) [Example 166, (S)-2-(tert-butoxy)-2-((R)-1-(chromane-8-carbonyl)-4-(8-fluoro-5-methylchroman-6-yl)-6-methylindolin-5-yl)acetic acid] registered an IC50 of 4 nM. With `COc1ccc(F)c(C(=O)N2CCc3c2cc(C)c([C@H](OC(C)(C)C)C(=O)O)c3-c2cc(F)c3c(c2C)CCCO3)c1` (atropisomer, axis not shown) [Example 167, (S)-2-(tert-Butoxy)-2-((R)-1-(2-fluoro-5-methoxybenzoyl)-4-(8-fluoro-5-methylchroman-6-yl)-6-methylindolin-5-yl)acetic acid] the figure was 7 nM. `COc1ccc(C(=O)N2CCc3c2cc(C)c([C@H](OC(C)(C)C)C(=O)O)c3-c2cc(F)c3c(c2C)CCCO3)c(C)c1` (atropisomer, axis not shown) [Example 168, (S)-2-(tert-Butoxy)-2-((R)-4-(8-fluoro-5-methylchroman-6-yl)-1-(4-methoxy-2-methylbenzoyl)-6-methylindolin-5-yl)acetic acid]: the midpoint of inhibition, the IC50, lay at 13 nM. As to `Cc1cc2c(c(-c3cc(F)c4c(c3C)CCCO4)c1[C@H](OC(C)(C)C)C(=O)O)CCN2C(=O)c1cccc2c1CCCO2` (atropisomer, axis not shown) [Example 169, (S)-2-(tert-Butoxy)-2-((R)-1-(chromane-5-carbonyl)-4-(8-fluoro-5-methylchroman-6-yl)-6-methylindolin-5-yl)acetic acid], it took 2 nM to reach half-maximal inhibition (IC50).

The molecule `COc1ccc(C(=O)N2CCc3c2cc(C)c([C@H](OC(C)(C)C)C(=O)O)c3-c2cc(F)c3c(c2C)CCCO3)cn1` (atropisomer, axis not shown) [Example 170, (S)-2-(tert-Butoxy)-2-((R)-4-(8-fluoro-5-methylchroman-6-yl)-1-(6-methoxynicotinoyl)-6-methylindolin-5-yl)acetic acid] returned a 50% inhibitory concentration (IC50) of 14 nM. With `COc1cnccc1C(=O)N1CCc2c1cc(C)c([C@H](OC(C)(C)C)C(=O)O)c2-c1cc(F)c2c(c1C)CCCO2` (atropisomer, axis not shown) [Example 171, (S)-2-(tert-Butoxy)-2-((R)-4-(8-fluoro-5-methylchroman-6-yl)-1-(3-methoxyisonicotinoyl)-6-methylindolin-5-yl)acetic acid] the figure was 14 nM. With `Cc1cc2c(c(-c3cc(F)c4c(c3C)CCCO4)c1[C@H](OC(C)(C)C)C(=O)O)CCN2C(=O)c1ccc(C(F)(F)F)nc1` (atropisomer, axis not shown) [Example 172, (S)-2-(tert-butoxy)-2-((R)-4-(8-fluoro-5-methylchroman-6-yl)-6-methyl-1-(6-(trifluoromethyl)nicotinoyl)indolin-5-yl)acetic acid], the IC50 was 6 nM. The figure for `Cc1cc2c(c(-c3cc(F)c4c(c3C)CCCO4)c1[C@H](OC(C)(C)C)C(=O)O)CCN2C(=O)c1cccnc1C` (atropisomer, axis not shown) [Example 173, (S)-2-(tert-butoxy)-2-((R)-4-(8-fluoro-5-methylchroman-6-yl)-6-methyl-1-(2-methylnicotinoyl)indolin-5-yl)acetic acid] is 13 nM; for `COc1cc(C(=O)N2CCc3c2cc(C)c([C@H](OC(C)(C)C)C(=O)O)c3-c2cc(F)c3c(c2C)CCCO3)cc(F)c1F` (atropisomer, axis not shown) [Example 174, (S)-2-(tert-Butoxy)-2-((R)-1-(3,4-Difluoro-5-methoxybenzoyl)-4-(8-fluoro-5-methylchroman-6-yl)-6-methylindolin-5-yl)acetic acid] it is 6 nM. With `Cc1cc2c(c(-c3cc(F)c4c(c3C)CCCO4)c1[C@H](OC(C)(C)C)C(=O)O)CCN2C(=O)C(=O)c1ccccc1` (atropisomer, axis not shown) [Example 175, (S)-2-(tert-Butoxy)-2-((R)-4-(8-fluoro-5-methylchroman-6-yl)-6-methyl-1-(2-oxo-2-phenylacetyl)indolin-5-yl)acetic acid] the figure was 90 nM. The figure for `COc1cc(C(=O)N2CCc3c2cc(C)c([C@H](OC(C)(C)C)C(=O)O)c3-c2cc(F)c3c(c2C)CCCO3)ccc1C(F)(F)F` (atropisomer, axis not shown) [Example 176, (S)-2-(tert-Butoxy)-2-((R)-4-(8-Fluoro-5-methylchroman-6-yl)-1-(3-methoxy-4-(trifluoromethyl)benzoyl)-6-methylindolin-5-yl)acetic acid] is 5 nM; for `Cc1cc2c(c(-c3cc(F)c4c(c3C)CCCO4)c1[C@H](OC(C)(C)C)C(=O)O)CCN2C(=O)c1cccc2c1CCO2` (atropisomer, axis not shown) [Example 177, (S)-2-(tert-Butoxy)-2-((R)-1-(2,3-dihydrobenzofuran-4-carbonyl)-4-(8-fluoro-5-methylchroman-6-yl)-6-methylindolin-5-yl)acetic acid] it is 2 nM.
